Assay [1] is described as follows: inhibitors of Her2 kinase expression, dose response, cell-based, AlphaScreen, CellTiter-Glo viability (AID 742). The following applies: human cells, Her2 expression AlphaScreen; CTG viability; at 9.62 µM (top of the series).
The test system of assay [2] is human cells, Her2 expression AlphaScreen; CTG viability. Described as above. The following applies: viability, CellTiter-Glo. On the technique in general: ATP-based viability assays read luminescence as a measure of living cells.

Calls of active or inactive are those of the source. No rule for the calls is given here. Bounds are passed on as bounds.

One may read the EC50 as the concentration giving half of the maximal effect. Low values mean an effect from little substance, high ones a need for much substance. On to `O=S(=O)(CCSc1nc2ccccc2o1)c1nc2ccccc2s1`, for which, in assay [1], the Her2 inhibition is -10.1% (inactive). The EC50 in assay [2] was > 9.62 µM.
The matching figures for `COc1cccc(N2CCN(c3ncnc4c3[nH]c3ccc(F)cc34)CC2C)c1` (stereo unspecified): -42.1% (inactive) and < 0.024 µM.
As to `N#CC1=C2SCN(c3ccccc3)CN2C(=O)CC1c1cccs1` (stereo unspecified), the Her2 inhibition in assay [1] is -27.6% (inactive). The EC50 in assay [2] is > 9.62 µM.
The matching figures for `O=C(c1ccc(F)cc1)C(CN1CCOCC1)c1ccccc1` (stereo unspecified): 28.5% (inactive) and > 9.62 µM.
The matching figures for `OC(CCN1CCCC1)(c1ccccc1)C1CCCCC1` (stereo unspecified): -24.9% (inactive) and > 9.62 µM.
The matching figures for `COc1ccc(OCC(=O)NCc2cccnc2)cc1`: -22.7% (inactive) and > 9.62 µM.
`CN1CCN(c2ccc(C(N)=O)cc2N)CC1`: the Her2 inhibition in assay [1] was -16.8% (inactive). In addition, the EC50 in assay [2] was > 9.62 µM.
As to `Cn1cnc2c1c(=O)[nH]c(=O)n2C`, the Her2 inhibition in assay [1] was -20.9% (inactive). Also, the concentration for a half-maximal effect (EC50) in assay [2] was > 9.62 µM.
The matching figures for `CCCCCN=Cc1c(C)[nH]n(-c2nc3ccccc3s2)c1=O`: -1.78% (inactive) and > 9.62 µM.
The matching figures for `CC(C)(C)NC(=O)CSc1ncnc2c1nnn2Cc1ccccc1Cl`: -10.2% (inactive) and > 9.62 µM.
In the same order, the values of `CCc1nc(C)ccc1OCC(=O)NCCCN(C)C` are -3% (inactive) and > 9.62 µM.
Consider `O=S(=O)(c1ccc2c(c1)C(=NO)c1cc(S(=O)(=O)N3CCCCC3)ccc1-2)N1CCCCC1`, for which, in assay [1], the Her2 inhibition was 27.4% (inactive). In addition, the EC50 in assay [2] is < 0.024 µM.
In the same order, the values of `C=CCN=C(NC#N)SCc1ccccc1Cl` are 0.27% (inactive) and > 9.62 µM.
For `CCCCCCOC(=O)C(C#N)c1nc2ccccc2nc1N1CCN(C)CC1` (stereo unspecified), in assay [1], the Her2 inhibition is -32.5% (inactive). The EC50 in assay [2] was > 9.62 µM.
As to `Cn1nnnc1SCC(=O)Nc1c(Cl)cccc1Cl`, in assay [1], the Her2 inhibition is -18.1% (inactive). Further, the EC50 in assay [2] is > 9.62 µM.
As to `Cc1c(-c2cccs2)[n+](=O)c2c(n1[O-])CCCC2`, in assay [1], the Her2 inhibition was -49% (inactive). Besides, in assay [2], the EC50 was > 9.62 µM.
`Cn1c(SC2=CS(=O)(=O)c3ccccc32)nc2ccccc21`: in assay [1], the Her2 inhibition is 44.8% (inactive). Besides, the EC50 in assay [2] was > 9.62 µM.
The matching figures for `CN1CCCN(C(c2ccccc2)c2ccc(Cl)cc2)CC1` (stereo unspecified): -8.42% (inactive) and > 9.62 µM.
In the same order, the values of `O=C(Nc1nccs1)C1C2/C=C\CCCCC21` (stereo unspecified) are -0.67% (inactive) and > 9.62 µM.
Regarding `N=C(N)c1c(O)n(C2CCCCC2)c(=O)n(C2CCCCC2)c1=O`, in assay [1], the Her2 inhibition was -21.5% (inactive). Besides, the EC50 in assay [2] is > 9.62 µM.
`CC1CC(C)(C)Nc2ccc(OC(=O)c3ccco3)cc21` (stereo unspecified): the Her2 inhibition in assay [1] was -5.22% (inactive). The EC50 in assay [2] is > 9.62 µM.
The matching figures for `FC(F)(F)c1ccc(N2CCOCC2)c(Nc2nc3ccccc3n3cnnc23)c1`: -15.5% (inactive) and > 9.62 µM.
As for `Clc1ccc(-n2nnnc2Sc2ncnc3sccc23)cc1`, the Her2 inhibition in assay [1] was -1.39% (inactive). For the same compound, the EC50 in assay [2] was > 9.62 µM.
In the same order, the values of `N#CC(C#N)=c1ccc2c(c1)NC1(CCCCC1)N=2` are 43.8% (inactive) and > 9.62 µM.
`COc1ccc(C(=O)c2no[n+]([O-])c2C(=O)c2ccc(OC)cc2)cc1`: the Her2 inhibition in assay [1] was -48.2% (inactive). For the same compound, the EC50 in assay [2] was > 9.62 µM.
The matching figures for `COc1ccc(-n2nnc3c(SCC(=O)Nc4ccc5c(c4)OCCO5)ncnc32)cc1`: -9.58% (inactive) and > 9.62 µM.
For the compound `CCCCn1c(SCc2c(C)noc2C)nc2cc(S(N)(=O)=O)ccc21`, in assay [1], the Her2 inhibition is -2.2% (inactive). Besides, in assay [2], the EC50 is > 9.62 µM.
The matching figures for `CC1(C)CC(=O)NC=C(c2ccccc2)C1`: 0.71% (inactive) and > 9.62 µM.
`O=C(NCc1ccco1)C(Cc1ccccc1)N1C(=O)c2ccccc2C1=O` (stereo unspecified): the Her2 inhibition in assay [1] is -6.2% (inactive). Also, the EC50 in assay [2] was > 9.62 µM.
The matching figures for `O=S(=O)(Nc1ccc2c(c1)CCC2)c1cccs1`: 10.2% (inactive) and > 9.62 µM.
The matching figures for `Cn1c(=O)c2c(SCc3cccc(C(F)(F)F)c3)nc(-c3ccco3)nc2n(C)c1=O`: -20.9% (inactive) and > 9.62 µM.
The matching figures for `COc1ccccc1-n1nnnc1S(=O)(=O)Cc1ccc(Cl)cc1`: 23.5% (inactive) and > 9.62 µM.
As for `CCOc1cc(C(=O)NCCOC)ccc1OC`, the Her2 inhibition in assay [1] is -7.59% (inactive). For the same compound, the EC50 in assay [2] is > 9.62 µM.
For `C[C@@]1(CO)[C@H](O)CC[C@@]2(C)[C@H]1CC[C@H]1C[C@@H]3C[C@@]12CC[C@]3(O)CO`, the Her2 inhibition in assay [1] was 1.16% (inactive). Also, the EC50 in assay [2] is > 9.62 µM.
In the case of `CCn1c(=O)c(C(=O)Nc2nc3ccccc3[nH]2)c(O)c2ccccc21`, in assay [1], the Her2 inhibition was 41.2% (inactive). The EC50 in assay [2] is > 9.62 µM.
In the case of `C=C(C)COc1ccc(-c2n[nH]c(C)c2Oc2ccccc2OC)c(O)c1`, in assay [1], the Her2 inhibition is -8.71% (inactive). Besides, the EC50 in assay [2] was > 9.62 µM.
On to `Cc1cc(C)n(-c2c(F)c(F)c(CN3CCOCC3)c(F)c2F)n1`, for which the Her2 inhibition in assay [1] is -10.7% (inactive). Further, the 50% effective concentration (EC50) in assay [2] is > 9.62 µM.
`Cc1ccccc1-c1nc(CN2CCC(C(=O)NCCC3=CCCCC3)CC2)c(C)o1`: in assay [1], the Her2 inhibition is -53.7% (inactive). The EC50 in assay [2] was > 9.62 µM.
In the same order, the values of `CCOC(=O)C(NC(C)=O)(N1CCc2ccccc2C1)C(F)(F)F` (stereo unspecified) are -13.1% (inactive) and > 9.62 µM.
On to `Cc1cc(NC(=O)CCCS(=O)(=O)c2nc(-c3cccs3)cc(C(F)(F)F)n2)no1`, for which, in assay [1], the Her2 inhibition is 18.9% (inactive). Also, in assay [2], the EC50 was > 9.62 µM.
Take `COc1ccc2oc(=O)c(-c3nnc(NCc4ccco4)s3)cc2c1`: in assay [1], the Her2 inhibition is -2.67% (inactive). The EC50 in assay [2] is > 9.62 µM.
Consider `CC1(C)CC(=O)C2(CC3=C(CC(C)(C)CC3=O)O2)C(=O)C1`, for which the Her2 inhibition in assay [1] is -2.95% (inactive). Further, the EC50 in assay [2] was > 9.62 µM.
In the same order, the values of `C[C@H]1CCC[C@H](O)CCCCCc2cc(O)cc(O)c2C(=O)O1` are 3.17% (inactive) and > 9.62 µM.
For the compound `Cc1onc(-c2ccccc2)c1C(=O)n1nnc2ccccc21`, the Her2 inhibition in assay [1] was -24.8% (inactive). Moreover, the EC50 in assay [2] is > 9.62 µM.
In the case of `CCCC1C(c2ccccc2)C(C#N)(C#N)C2(C#N)CC1(N)NC2=O` (stereo unspecified), the Her2 inhibition in assay [1] was -6.63% (inactive). Further, the EC50 in assay [2] is > 9.62 µM.
The matching figures for `CCOC(=O)Cn1nnnc1C(CC)N(Cc1cccs1)Cc1cc2ccc(OC)cc2[nH]c1=O` (stereo unspecified): 22.9% (inactive) and > 9.62 µM.
As for `CC12CCCCC1(O)[N+](=O)C1=C(CCCC1)N2[O-]` (stereo unspecified), the Her2 inhibition in assay [1] was -13.5% (inactive). For the same compound, the EC50 in assay [2] is > 9.62 µM.
As for `CCOC(=O)c1c(C)oc2c1c(C(c1ccncc1)N1CCOCC1)c(O)c1ccccc12` (stereo unspecified), in assay [1], the Her2 inhibition is 23.5% (inactive). The EC50 in assay [2] was > 9.62 µM.

The values above are taken from PubChem BioAssay AID742 (SRMLSC, 2007).
